Consider two compounds from ChEMBL document CHEMBL5291721, “A preclinical secondary pharmacology resource illuminates target-adverse drug reaction associations of marketed drugs” (Nat Commun, 2023).

In general, AC50 refers to the midpoint of the concentration-response curve, whichever way the signal moves.

A value given as a limit tells only on which side of the number the result lay.

The target of assay [1] is T1, Alpha-2A adrenergic receptor (Homo sapiens, UniProt P08913).
T1 sequence (P08913 whole entry): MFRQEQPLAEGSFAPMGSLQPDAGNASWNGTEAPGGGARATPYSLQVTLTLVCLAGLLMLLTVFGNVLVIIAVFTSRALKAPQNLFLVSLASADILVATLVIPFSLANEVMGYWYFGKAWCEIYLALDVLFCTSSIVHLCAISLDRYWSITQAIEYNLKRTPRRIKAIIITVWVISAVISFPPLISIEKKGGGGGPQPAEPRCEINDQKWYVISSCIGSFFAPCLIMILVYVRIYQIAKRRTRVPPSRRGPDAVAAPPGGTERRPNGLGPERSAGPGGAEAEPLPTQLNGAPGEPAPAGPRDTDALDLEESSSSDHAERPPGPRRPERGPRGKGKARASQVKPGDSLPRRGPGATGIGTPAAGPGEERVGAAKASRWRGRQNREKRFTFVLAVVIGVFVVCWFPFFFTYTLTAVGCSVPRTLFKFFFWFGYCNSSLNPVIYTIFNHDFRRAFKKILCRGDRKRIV
It is filed as functional, cell-based.

The target of assay [2] is Voltage-dependent L-type calcium channel subunit alpha-1C (Rattus norvegicus, UniProt P22002). The class given is functional.
Chain of Voltage-dependent L-type calcium channel subunit alpha-1C (P22002 whole entry): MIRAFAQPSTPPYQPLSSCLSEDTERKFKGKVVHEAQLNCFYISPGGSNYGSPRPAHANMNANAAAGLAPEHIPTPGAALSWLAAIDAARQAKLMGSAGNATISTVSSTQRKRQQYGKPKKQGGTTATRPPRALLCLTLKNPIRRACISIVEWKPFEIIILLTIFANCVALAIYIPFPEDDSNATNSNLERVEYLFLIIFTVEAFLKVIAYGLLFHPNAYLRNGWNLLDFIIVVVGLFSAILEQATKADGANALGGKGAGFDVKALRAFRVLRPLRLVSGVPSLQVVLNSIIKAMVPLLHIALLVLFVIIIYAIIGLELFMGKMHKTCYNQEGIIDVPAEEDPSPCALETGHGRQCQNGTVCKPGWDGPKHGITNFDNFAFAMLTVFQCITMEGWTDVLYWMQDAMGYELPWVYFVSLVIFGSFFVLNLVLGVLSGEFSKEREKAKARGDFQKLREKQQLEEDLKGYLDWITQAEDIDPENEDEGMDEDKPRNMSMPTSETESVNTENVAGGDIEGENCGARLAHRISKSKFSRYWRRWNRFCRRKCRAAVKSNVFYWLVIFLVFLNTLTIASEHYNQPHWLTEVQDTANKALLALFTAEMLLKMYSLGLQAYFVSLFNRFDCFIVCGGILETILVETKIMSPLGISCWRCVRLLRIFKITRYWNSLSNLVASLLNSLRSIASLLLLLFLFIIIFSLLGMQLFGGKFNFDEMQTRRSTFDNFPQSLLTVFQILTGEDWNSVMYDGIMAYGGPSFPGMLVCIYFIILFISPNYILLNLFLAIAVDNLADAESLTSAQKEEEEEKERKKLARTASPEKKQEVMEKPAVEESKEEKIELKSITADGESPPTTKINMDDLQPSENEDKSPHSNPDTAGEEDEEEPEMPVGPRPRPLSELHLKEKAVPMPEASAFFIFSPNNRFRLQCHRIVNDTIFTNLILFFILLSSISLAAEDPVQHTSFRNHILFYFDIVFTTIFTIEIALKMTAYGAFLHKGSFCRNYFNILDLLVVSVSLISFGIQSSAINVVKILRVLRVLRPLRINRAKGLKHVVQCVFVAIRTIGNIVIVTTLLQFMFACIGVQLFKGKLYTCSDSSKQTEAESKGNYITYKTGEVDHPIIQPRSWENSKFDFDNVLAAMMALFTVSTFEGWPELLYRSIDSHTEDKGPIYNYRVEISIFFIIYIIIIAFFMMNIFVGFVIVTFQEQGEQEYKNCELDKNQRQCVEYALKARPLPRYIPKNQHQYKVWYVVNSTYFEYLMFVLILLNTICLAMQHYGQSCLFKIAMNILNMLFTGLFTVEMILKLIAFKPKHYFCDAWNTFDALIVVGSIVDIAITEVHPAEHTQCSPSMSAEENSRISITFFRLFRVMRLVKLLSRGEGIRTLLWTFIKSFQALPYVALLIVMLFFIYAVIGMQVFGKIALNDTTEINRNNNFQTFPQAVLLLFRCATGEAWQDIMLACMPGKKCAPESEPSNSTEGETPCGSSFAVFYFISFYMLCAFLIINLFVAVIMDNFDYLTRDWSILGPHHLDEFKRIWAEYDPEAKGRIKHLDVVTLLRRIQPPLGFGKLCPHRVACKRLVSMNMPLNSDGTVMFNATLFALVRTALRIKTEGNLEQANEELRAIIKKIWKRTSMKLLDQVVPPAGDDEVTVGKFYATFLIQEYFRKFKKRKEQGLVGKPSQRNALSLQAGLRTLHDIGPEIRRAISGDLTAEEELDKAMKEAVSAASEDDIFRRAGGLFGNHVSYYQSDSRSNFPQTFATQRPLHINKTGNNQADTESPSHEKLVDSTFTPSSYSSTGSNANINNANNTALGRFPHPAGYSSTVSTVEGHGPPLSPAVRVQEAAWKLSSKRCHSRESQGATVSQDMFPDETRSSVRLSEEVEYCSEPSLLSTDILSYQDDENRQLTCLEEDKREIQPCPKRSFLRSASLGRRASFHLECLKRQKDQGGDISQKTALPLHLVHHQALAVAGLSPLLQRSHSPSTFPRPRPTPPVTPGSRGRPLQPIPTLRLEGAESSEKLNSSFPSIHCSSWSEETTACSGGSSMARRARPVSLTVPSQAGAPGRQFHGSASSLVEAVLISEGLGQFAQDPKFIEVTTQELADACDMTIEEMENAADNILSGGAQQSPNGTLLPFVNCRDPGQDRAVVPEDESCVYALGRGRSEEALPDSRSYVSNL
Assay [3] concerns the target T2, Cholecystokinin receptor type A (Homo sapiens, UniProt P32238).
T2 sequence (P32238 whole entry): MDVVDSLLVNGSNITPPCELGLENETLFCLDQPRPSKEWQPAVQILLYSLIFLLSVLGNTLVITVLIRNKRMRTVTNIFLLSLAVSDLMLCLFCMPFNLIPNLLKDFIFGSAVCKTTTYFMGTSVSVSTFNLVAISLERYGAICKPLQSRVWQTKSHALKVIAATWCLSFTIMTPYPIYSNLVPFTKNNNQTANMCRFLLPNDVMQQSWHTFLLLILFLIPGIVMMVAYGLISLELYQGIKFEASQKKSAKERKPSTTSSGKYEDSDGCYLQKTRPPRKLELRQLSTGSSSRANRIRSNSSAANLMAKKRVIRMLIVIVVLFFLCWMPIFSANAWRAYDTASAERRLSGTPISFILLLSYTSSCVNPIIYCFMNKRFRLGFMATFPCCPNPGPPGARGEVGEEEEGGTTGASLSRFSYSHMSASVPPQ

Assay [4] deals with Muscarinic acetylcholine receptor M3 (Homo sapiens, UniProt P20309).
Chain of Muscarinic acetylcholine receptor M3 (P20309 whole entry): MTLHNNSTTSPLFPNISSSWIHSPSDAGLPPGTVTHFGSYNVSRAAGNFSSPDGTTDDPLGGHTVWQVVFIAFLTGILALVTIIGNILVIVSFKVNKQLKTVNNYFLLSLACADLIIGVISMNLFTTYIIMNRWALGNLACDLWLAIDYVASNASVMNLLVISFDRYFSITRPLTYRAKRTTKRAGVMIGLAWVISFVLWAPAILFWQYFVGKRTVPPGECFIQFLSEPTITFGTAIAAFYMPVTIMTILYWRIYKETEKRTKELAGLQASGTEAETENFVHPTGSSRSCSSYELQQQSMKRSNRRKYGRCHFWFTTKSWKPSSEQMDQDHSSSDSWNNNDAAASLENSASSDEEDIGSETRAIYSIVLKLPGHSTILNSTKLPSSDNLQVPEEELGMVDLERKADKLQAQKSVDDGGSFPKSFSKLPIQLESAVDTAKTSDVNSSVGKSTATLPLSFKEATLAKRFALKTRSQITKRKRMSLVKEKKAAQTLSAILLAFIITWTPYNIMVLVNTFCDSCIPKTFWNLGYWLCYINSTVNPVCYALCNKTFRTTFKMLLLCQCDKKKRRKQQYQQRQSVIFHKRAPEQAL
The target in assay [5] is Neuronal acetylcholine receptor subunit alpha-4 (Homo sapiens, UniProt P43681).
Chain of Neuronal acetylcholine receptor subunit alpha-4 (P43681 whole entry): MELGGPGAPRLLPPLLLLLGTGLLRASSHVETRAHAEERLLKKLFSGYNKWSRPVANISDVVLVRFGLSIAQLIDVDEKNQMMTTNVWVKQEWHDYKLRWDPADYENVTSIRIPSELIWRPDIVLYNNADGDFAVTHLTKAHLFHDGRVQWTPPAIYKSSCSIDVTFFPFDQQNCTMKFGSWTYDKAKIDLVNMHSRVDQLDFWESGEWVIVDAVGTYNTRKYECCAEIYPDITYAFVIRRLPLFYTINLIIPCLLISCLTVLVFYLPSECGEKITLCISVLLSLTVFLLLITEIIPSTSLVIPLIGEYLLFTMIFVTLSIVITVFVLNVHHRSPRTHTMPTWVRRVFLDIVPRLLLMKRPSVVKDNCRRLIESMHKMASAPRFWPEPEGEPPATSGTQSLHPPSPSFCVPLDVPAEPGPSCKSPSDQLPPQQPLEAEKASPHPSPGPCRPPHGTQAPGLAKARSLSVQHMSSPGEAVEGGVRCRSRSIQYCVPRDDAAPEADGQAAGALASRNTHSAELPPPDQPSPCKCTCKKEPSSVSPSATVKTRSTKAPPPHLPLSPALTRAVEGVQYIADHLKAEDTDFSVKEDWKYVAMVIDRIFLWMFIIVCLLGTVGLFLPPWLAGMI
The target in the next assay is D(1A) dopamine receptor (Homo sapiens, UniProt P21728). The class given is functional, cell-based.
Chain of D(1A) dopamine receptor (P21728 whole entry): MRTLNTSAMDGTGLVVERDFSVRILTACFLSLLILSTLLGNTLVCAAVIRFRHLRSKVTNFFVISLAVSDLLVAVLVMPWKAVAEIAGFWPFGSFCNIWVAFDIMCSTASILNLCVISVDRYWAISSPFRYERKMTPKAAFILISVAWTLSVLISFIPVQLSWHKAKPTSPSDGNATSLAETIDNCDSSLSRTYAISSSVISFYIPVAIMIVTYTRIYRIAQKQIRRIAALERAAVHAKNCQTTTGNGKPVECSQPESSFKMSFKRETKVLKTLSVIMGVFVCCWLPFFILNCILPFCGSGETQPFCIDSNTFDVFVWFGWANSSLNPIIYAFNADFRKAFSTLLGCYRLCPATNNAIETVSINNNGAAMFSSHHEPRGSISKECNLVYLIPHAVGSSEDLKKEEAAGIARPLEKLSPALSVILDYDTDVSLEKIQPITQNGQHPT
The target of assay [6] is Gamma-aminobutyric acid receptor subunit alpha-1 (Rattus norvegicus, UniProt P62813). It is filed as functional.
Chain of Gamma-aminobutyric acid receptor subunit alpha-1 (P62813 whole entry): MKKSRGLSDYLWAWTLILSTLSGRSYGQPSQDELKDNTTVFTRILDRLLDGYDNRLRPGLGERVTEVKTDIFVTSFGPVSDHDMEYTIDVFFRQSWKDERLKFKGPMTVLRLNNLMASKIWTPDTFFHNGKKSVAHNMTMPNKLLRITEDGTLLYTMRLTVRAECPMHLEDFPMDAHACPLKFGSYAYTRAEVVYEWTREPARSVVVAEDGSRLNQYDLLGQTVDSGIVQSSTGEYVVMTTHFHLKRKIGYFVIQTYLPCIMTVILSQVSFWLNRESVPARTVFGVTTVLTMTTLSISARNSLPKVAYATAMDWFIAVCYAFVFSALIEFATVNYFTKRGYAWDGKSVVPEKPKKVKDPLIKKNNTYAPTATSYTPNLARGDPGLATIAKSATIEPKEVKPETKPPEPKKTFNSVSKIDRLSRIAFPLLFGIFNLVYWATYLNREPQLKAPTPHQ
A further assay concerns the target Histamine H2 receptor (Homo sapiens, UniProt P25021). The class given is functional, cell-based.
The target of another assay is T3, Progesterone receptor (Homo sapiens, UniProt P06401).
T3 sequence (P06401 whole entry): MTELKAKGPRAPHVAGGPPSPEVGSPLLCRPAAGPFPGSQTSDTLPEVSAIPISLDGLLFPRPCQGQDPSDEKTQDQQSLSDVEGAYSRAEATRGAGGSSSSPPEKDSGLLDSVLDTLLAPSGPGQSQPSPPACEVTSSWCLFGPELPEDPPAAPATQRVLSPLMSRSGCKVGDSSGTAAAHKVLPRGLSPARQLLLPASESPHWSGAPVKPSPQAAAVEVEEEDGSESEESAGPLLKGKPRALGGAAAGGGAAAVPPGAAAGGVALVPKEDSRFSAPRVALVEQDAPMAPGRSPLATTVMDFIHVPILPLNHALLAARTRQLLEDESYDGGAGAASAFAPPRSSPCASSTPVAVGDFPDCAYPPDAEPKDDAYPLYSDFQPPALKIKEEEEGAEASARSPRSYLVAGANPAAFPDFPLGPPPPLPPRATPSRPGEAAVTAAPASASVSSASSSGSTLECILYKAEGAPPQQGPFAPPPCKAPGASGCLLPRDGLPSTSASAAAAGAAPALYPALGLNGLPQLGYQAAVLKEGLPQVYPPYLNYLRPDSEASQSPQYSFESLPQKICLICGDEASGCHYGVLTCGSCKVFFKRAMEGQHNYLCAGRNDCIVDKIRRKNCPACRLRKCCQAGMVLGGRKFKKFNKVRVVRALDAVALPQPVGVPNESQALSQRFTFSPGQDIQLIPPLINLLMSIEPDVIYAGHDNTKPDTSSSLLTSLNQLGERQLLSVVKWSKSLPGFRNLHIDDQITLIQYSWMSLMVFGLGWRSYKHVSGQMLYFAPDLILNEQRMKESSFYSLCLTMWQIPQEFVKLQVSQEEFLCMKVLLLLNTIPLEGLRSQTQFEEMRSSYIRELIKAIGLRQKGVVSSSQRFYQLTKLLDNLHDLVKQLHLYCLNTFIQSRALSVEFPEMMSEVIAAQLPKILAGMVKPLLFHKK
The class given is functional.

Assay [7] concerns the target T4, Amine oxidase [flavin-containing] A (Homo sapiens, UniProt P21397).
T4 sequence (P21397 whole entry): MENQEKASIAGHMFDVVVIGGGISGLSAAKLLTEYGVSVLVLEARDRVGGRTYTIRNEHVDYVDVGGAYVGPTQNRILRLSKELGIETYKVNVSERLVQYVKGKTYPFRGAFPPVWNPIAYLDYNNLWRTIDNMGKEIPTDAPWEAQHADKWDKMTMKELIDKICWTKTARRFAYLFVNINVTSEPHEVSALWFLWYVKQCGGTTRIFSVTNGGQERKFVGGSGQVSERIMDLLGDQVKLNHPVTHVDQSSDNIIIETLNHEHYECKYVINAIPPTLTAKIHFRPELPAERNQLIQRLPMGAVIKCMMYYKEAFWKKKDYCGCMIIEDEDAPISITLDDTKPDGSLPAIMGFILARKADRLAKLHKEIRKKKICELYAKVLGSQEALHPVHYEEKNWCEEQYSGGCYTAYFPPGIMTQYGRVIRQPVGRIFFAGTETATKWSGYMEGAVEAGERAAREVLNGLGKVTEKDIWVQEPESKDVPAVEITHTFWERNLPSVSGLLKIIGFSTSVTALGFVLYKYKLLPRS
It is filed as functional.
Note: assay procedure not described here.

Chain of Histamine H2 receptor (P25021 whole entry): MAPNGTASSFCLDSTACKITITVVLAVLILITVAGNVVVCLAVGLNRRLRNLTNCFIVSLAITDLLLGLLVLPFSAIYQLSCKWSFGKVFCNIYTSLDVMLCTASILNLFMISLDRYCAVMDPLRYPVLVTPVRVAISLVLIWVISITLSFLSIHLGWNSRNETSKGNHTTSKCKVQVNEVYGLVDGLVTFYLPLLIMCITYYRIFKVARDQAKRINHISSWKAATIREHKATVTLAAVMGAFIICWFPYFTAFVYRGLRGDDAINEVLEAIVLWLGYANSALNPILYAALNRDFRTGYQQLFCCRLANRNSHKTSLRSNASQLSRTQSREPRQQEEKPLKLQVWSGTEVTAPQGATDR

As for `COc1c(O[C@@H]2O[C@H](CO)[C@@H](O)[C@H](O)[C@H]2O)cc2c(c1OC)-c1ccc(SC)c(=O)cc1[C@@H](NC(C)=O)CC2` [THIOCOLCHICOSIDE], the concentration at half-maximal activity (AC50) (in assay [1]; in [2]; in assay [3]; in [4]; in assay [5]; at D(1A) dopamine receptor) was over 30 µM throughout. Moreover, the AC50 (in assay [6]; at Histamine H2 receptor; at Progesterone receptor; in assay [7]) was over 30 µM each time.

`C=CC(N)CCC(=O)O` (stereo not given) [VIGABATRIN]: the AC50 was over 10 µM in assay [1]; over 10 µM in assay [2]; over 10 µM in [3]; over 30 µM in assay [4]; over 10 µM in assay [5]; over 10 µM on D(1A) dopamine receptor. In addition, the AC50 (in assay [6]; at Histamine H2 receptor; on Progesterone receptor; in assay [7]) was over 10 µM in each case.
